Assay [1] concerns Aspergillus niger ATCC 16404. The assay can be described thus: Antifungal susceptibility study (1), broth microdilution MIC. The following applies: lowest concentration preventing any visible growth, read at 48 hours, 35° C., RPMI 1640 pH 7.0. The class given is cell-based. The procedure, abridged: (§1)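 Broth microdilution was run at pH 7.0 with compounds diluted from DMSO solutions and mixed 1:1 with conidial inoculum. Spore suspensions were adjusted to OD530 0.09-0.11 for A. niger or 0.15-0.17 for F. oxysporum, then diluted 1:50. Plates were incubated at 35° C without agitation, and MIC was read at 48 hours as absence of visible growth.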

Assay [2] relates to Fusarium oxysporum VKM F-140. The assay is described as above. The class given is cell-based. Conditions: lowest concentration preventing any visible growth, read at 48 hours, 35° C., RPMI 1640 pH 7.0. The method in brief:
as §1

The subject of assay [3] is Candida albicans (strain 14053 ATCC). The assay can be described thus: In vivo antifungal activity, kidney burden in infected mice. Conditions: day 5, individual mice. As for the experimental part:
Male mice of hybrids of first generation (C57B1/6xDBA/2)F1 B6D2F1, weight 20-22 g., received from the Central farm. “Kryukovo” of Russian Academies of Medical Science (RAMS) were used. Animals were maintained in a vivarium in plastic cages (with hardwood bedding in environmentally controlled conditions: 24±1° C., 12/12 hours light/dark cycle) on a standard diet of bricketed forages with easy access to drinking water (ad libitum). After a 2-week quarantine period, healthy animals were used in experimental work.
The solutions were prepared as follows: dry antibiotic substances (5 mg) were mixed with dry sodium deoxycholate (4.1 mg) in a sterile glass vial. 10 mL of phosphate buffer (NaH2PO4—1.59 g; Na2HPO4—0.96 g; H2O—to 100 mL) was added to the mix and the suspension was immediately subjected to vigorous shaking for 10 minutes until homogeneous suspensions were formed.
Animals were infected intravenously with Candida albicans culture at a dose of 1.0 million CFU/mouse (volume 0.1 mL). 30 minutes after infection, the antifungal agents were introduced intravenously into the mice at various doses in a volume of 0.2 mL (at a rate of 0.2 mL/30 second). Each dose was administered daily for four days including the day of infection (0, 1, 2 and 3 days).
As a control, there was a group of untreated mice (infected in the same way with Candida albicans). Also there was a “placebo” group of non-infected animals which were intravenously administered (in the same volume as antifungal agent preparations) 0.2 mL of solvent (phosphatic buffer +5% glucose (1:1)).
On the 5th day of experiment, mice were weighed and euthanized (killed) by a cervical dislocation. Then, in sterile conditions, the Candida albicans burden of each mouse was determined by counting of viable homogenates from the kidneys. The kidneys were removed aseptically and weighed, then pounded in porcelain mortars with sterile corundum. Dilutions of the resulting suspensions were prepared and sowed on Petri dishes with agar Saburo, incubated for 24 hours at a temperature of 35° C. Developed colonies of Candida albicans were then counted and their quantity calculated on the basis of 1 g of kidney tissue.

For assay [4] the test system is unchanged. Kind of assay: Model of the candidiasis sepsis of mice, kidney burden. The class given is in vivo. The following applies: for Candida albicans burden in kidneys (Mean): day 5, n=3 mice. As for the experimental part:
In experiments used female mice of hybrids of first generation (C57B1/6xDBA/2)F1 (B6D2F1), weight 18-20 g., received from the Central farm “Kryukovo” of Russian Academies of Medical Science (RAMS). Animals were maintained in Institute' vivarium in plastic cages (with hardwood bedding in environmentally controlled room: 24±1° C., 12/12 hours light/dark cycle) on a standard diet of bricketed forages with an easy approach to drinking water (ad libitum). After 2-week quarantine healthy animals were used in experimental work.
A preparation of comparison was amphotericin B (pure). Solutions of tested preparations prepared ex tempore by the technique specified by the customer.
Animals were housed on 3 mice and infected intravenously with culture Candida albicans in a doze 1.0 million CFU/mouse in volume of 0.1 ml. It is necessary to note, that doze Candida albicans remained a constant in all experiments. In 30 minutes after infection to mice carried out the first intravenous introduction of tested preparations in corresponding dozes in volume of 0.2 ml (with a speed of 0.2 ml/30 second).
Experiment has been planned in such a manner that in each experiment one doze (both for amphotericin B was used, and for tested preparations), each doze entered daily within four days, since day of infection (0, 1, 2 and 3 days). At each experiment there was a group untreated, infected with Candida albicans animals. Also there was a group “placebo”, intact (not infected) animals, which intravenously (in the same volume as medical preparations) injected 0.2 ml of solvent—phosphatic buffer +5% glucose (1:1).
On the post challenge 5th day of experiment, mice were weighed and euthanized (killed) by a cervical dislocation. Then, in sterile conditions, Candida albicans burdens were determined by viable counting of homogenates from the kidneys. The kidneys, which were removed aseptically and weighed, pounded in porcelain mortars with sterile corundum, did dilutions of the received suspensions and sowed on Petri dishes with agar Saburo, incubated for 48 hours at temperature 35° C., then counted up developed colonies Candida albicans and recalculated their quantity on 1 g of kidney' tissue. The first dilution was 10^−1. Zero result at this cultivation accepted for 5 CFU/g.
For the basic criterion of an assessment of the investigated preparations the maximal effect of the Amphotricin B was accepted (effective dose, ED).
For significant accepted distinctions of average at P≦0.05 at comparison by Student t-criterion.

Where [5] appears, read: dose 0.08 mg/kg/d i.v. for four days.
Setting [6] is: dose 0.16 mg/kg/d i.v. for four days.
The mark [7] stands for this setting: dose 0.31 mg/kg/d i.v. for four days.
[8] abbreviates: dose 0.62 mg/kg/d i.v. for four days.
[9] abbreviates: dose 1.25 mg/kg/d i.v. for four days.
Where [10] appears, read: dose 2.5 mg/kg/d i.v. for four days.
The mark [11] stands for this setting: 0.08 mg/kg × 4/24 i.v., colonies per 1 g of kidney tissue.
[12] abbreviates: 0.8 mg/kg × 4/24 i.v., colonies per 1 g of kidney tissue.
[13] abbreviates: 2.5 mg/kg × 4/24 i.v., colonies per 1 g of kidney tissue.
The mark [14] stands for this setting: 5 mg/kg × 4/24 i.v., Candida albicans colonies per 1 g of kidney tissue.

Each structure is given as a SMILES string. ≈ marks a conversion by molar mass, not a printed value. Where “and” joins values, the source holds several entries; their conditions need not be identical. Equal entries are not always repeated. A value given as a limit tells only on which side of the number the result lay.

For `C[C@@H]1[C@H](O)[C@@H](C)/C=C/C=C/C=C/C=C/C=C/C=C/C=C/[C@H](O[C@@H]2O[C@H](C)[C@@H](O)[C@H](N)[C@@H]2O)C[C@@H]2O[C@](O)(C[C@@H](O)C[C@@H](O)[C@H](O)CC[C@@H](O)C[C@@H](O)CC(=O)O[C@H]1C)C[C@H](O)[C@H]2C(=O)O` [Amphotericin B, reference compound], in assay [1], the “MIC Aspergillus niger ATCC 16404” value came to 1 µg/mL (≈ 1.08 µM). Also, the “MIC Fusarium oxysporum VKM F-140” value in assay [2] came to 4 µg/mL (≈ 4.33 µM). The “Number of Colonies” value in assay [3] (0.08 mg/kg × 4/24 i.v., colonies per 1 g of kidney tissue, listed as Amp B) was 1.8 × 10^4 and 2.6 × 10^4 and 3.4 × 10^4; in assay [3] (0.8 mg/kg × 4/24 i.v., colonies per 1 g of kidney tissue, listed as Amp B), 2 × 10^3 and 6 × 10^3 and 4 × 10^3; in assay [3] (2.5 mg/kg × 4/24 i.v., colonies per 1 g of kidney tissue, listed as Amp B), 1.0 × 10^3 and 2.2 × 10^2 and 2.8 × 10^2. The “dose of maximal activity as % from MTD” value in assay [4] (1.25 mg/kg/d) was “≈ 62%”. Also, the “Candida albicans burden in kidneys (Mean)” value (“Candida albicans burden” below) in assay [4] (setting [5]) is 105000 CFU/g; in assay [4] (setting [6]) it was 85667 CFU/g; in assay [4] (setting [7]) it was 34667 CFU/g; in assay [4] (setting [8]) it was 10667 CFU/g; in assay [4] (setting [9]) it was 1667 CFU/g. For the same compound, the “dose of maximal activity (effective dose, ED)” value in assay [4] (highest studied dose, criterion of activity) came out at 1.25 mg/kg/day.

On to `CC1O[C@@H](O[C@H]2/C=C/C=C/C=C/C=C/C=C/C=C/C=C/[C@H](C)[C@@H](O)[C@@H](C)[C@H](C)OC(=O)C[C@H](O)C[C@H](O)C[C@H](O)CC[C@@H](O)[C@H](O)C[C@]3(O)C[C@H](O)[C@@H](C)[C@H](C2)O3)[C@H](O)C(NC(=O)[C@@H](N)CCCCN)[C@@H]1O` (stereo partly drawn) [Compound 51, N-L-Lysyl-Compound 1], for which the “MIC Aspergillus niger ATCC 16404” value in assay [1] turned out to be 1 µg/mL (≈ 0.978 µM). For the same compound, in assay [2], the “MIC Fusarium oxysporum VKM F-140” value is 2 µg/mL (≈ 1.96 µM). Besides, the “Candida albicans burden” value amounted to 56667 CFU/g in assay [4] (setting [5]); 22667 CFU/g in assay [4] (setting [7]); 17833 CFU/g in assay [4] (setting [8]); 9400 CFU/g in assay [4] (setting [9]); 5 CFU/g in assay [4] (setting [10]).

As to `CC1C=CC=CC=CC=CC=CC=CC=CC(OC2OC(C)C(O)C(N)C2O)CC2OC(O)(CC(O)C(O)CCC(O)CC(O)CC(O)CC(=O)OC(C)C(C)C1O)CC(O)C2C(=O)NCCCN(C)C` (stereo not drawn) [Compound 11, S44HP DMAP Amide], the “MIC Aspergillus niger ATCC 16404” value in assay [1] is 2 µg/mL (≈ 1.98 µM). The “MIC Fusarium oxysporum VKM F-140” value in assay [2] amounted to 2 µg/mL (≈ 1.98 µM). The “Number of Colonies” value in assay [3] (setting [11]) is 3.0 × 10^4 and 2.7 × 10^4 and 1.5 × 10^4; in assay [3] (setting [12]) it was 1.2 × 10^3 and 3.0 × 10^3 and 2.5 × 10^3; in assay [3] (setting [13]), <10^1 and 1.0 × 10^1 (2×); in assay [3] (setting [14]), 0 (2×) and <10^1.

For the compound `CC1C=CC=CC=CC=CC=CC=CC=CC(OC2OC(C)C(O)C(N)C2O)CC2OC(O)(CC(O)C(O)CCC(O)CC(O)CC(O)CC(=O)OC(C)C(C)C1O)CC(O)C2C` (stereo not drawn) [Compound 1], the “MIC Aspergillus niger ATCC 16404” value in assay [1] was 1 µg/mL and 2 µg/mL; in assay [1] (listed as Comp 1) it was 2 µg/mL (≈ 2.24 µM). The “MIC Fusarium oxysporum VKM F-140” value in assay [2] was found to be 2 µg/mL (≈ 2.24 µM). In addition, the “Number of Colonies” value is 2.4 × 10^4 (2×) and 2.8 × 10^4 in assay [3] (setting [11]); 2.5 × 10^3 and 1.2 × 10^3 and 5.0 × 10^3 in assay [3] (setting [12]); 2.0 × 10^1 (2×) and 1.0 × 10^1 in assay [3] (setting [13]); 1.0 × 10^1 (2×) and 0 in assay [3] (setting [14]).

As to `CC1C=CC=CC=CC=CC=CC=CC=CC(OC2OC(C)C(O)C(N)C2O)CC2OC(O)(CC(O)C(O)CCC(O)CC(O)CC(O)CC(=O)OC(C)C(C)C1O)CC(O)C2C.NC(CCC(=O)O)C(=O)O` [Compound 29, Compound 1 L-glutamate], the “MIC Aspergillus niger ATCC 16404” value in assay [1] came out at 2 µg/mL. Besides, the “MIC Fusarium oxysporum VKM F-140” value in assay [2] turned out to be 2 µg/mL. Further, the “Candida albicans burden” value in assay [4] (setting [6]) was 102667 CFU/g; in assay [4] (setting [8]), 12500 CFU/g; in assay [4] (setting [9]), 2557 CFU/g; in assay [4] (setting [10]) it was 133 CFU/g; in assay [4] (dose 5 mg/kg/d i.v. for four days, zero result accepted for 5 CFU/g) it was 5 CFU/g.

Values taken from patent publication US8415312B2, “Compound which is a nystatin derivative” (Biosergen AS, priority 2007, dated 2013).
